Test results taken from patent publication US6653478B2, “Substituted benzimidazol-2-ones as vasopressin receptor antagonists and neuropeptide Y modulators” (Ortho-McNeil Pharmaceutical, Inc., priority 2000, dated 2003).
pIC50: −log10 of the molar value. Several values for one entry are separate records, joined by “and”; a condition that tells them apart may be missing. Equal values may be shown once.

Key:
[1] = target: human V1a receptor (Homo sapiens, UniProt P37288); assay: V1a binding assay (3H-AVP displacement, HEK-293 membranes); parameters: expressed in transfected cells; host or cells: HEK-293 (membranes); conditions: for inhibition at 1 µM: read-out: V1a@1.0, % Inh
human V1a receptor, sequence (P37288 whole entry): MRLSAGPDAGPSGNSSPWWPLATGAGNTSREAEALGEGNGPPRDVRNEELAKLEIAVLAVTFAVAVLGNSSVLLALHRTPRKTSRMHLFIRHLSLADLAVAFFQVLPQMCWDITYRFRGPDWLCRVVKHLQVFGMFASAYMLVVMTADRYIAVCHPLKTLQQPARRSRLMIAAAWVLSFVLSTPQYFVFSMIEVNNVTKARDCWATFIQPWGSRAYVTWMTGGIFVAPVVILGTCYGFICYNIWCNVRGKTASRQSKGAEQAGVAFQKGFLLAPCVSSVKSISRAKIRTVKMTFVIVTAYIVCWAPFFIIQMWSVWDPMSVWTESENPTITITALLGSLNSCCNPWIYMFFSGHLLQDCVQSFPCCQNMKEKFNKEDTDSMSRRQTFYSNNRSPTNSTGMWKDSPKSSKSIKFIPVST
How it was run: (§1)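 Membranes competed against 3H-AVP (40-87 Ci/mmol, 10,000 cpm/well) in 50 mM Tris, 5 mM MgCl2, 0.1% BSA, pH 7.5, with protease inhibitors. Incubated 1 hour at room temperature, then filtered on PEI-presoaked GF/C and scintillation counted. Non-specific binding defined with 1.25 μM AVP.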

[2] = target: T1, NPY2 receptors (Homo sapiens, UniProt P49146); assay: Neuropeptide Y receptor binding assay (125I-PYY, KAN-TS cell membranes); conditions: 10 μM compound; for inhibition at 10 µM: read-out: NPY-2@10, % Inh
T1 construct: Cell Membranes from KAN-TS cells having NPY2 receptors; endogenous in cells; host or cells: KAN-TS cells (membranes)
T1 sequence (P49146 1-381): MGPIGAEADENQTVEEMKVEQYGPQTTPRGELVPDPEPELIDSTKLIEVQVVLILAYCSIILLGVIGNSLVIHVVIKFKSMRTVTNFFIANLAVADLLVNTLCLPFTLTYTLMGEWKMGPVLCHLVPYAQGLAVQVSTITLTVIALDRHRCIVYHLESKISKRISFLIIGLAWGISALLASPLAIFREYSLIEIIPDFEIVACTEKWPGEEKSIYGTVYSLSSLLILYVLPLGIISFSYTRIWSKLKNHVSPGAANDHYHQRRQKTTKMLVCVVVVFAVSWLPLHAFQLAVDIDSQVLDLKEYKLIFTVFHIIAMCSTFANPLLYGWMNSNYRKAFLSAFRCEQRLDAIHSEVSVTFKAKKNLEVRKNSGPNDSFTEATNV
How it was run: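 Membranes from KAN-TS cells competed with 125I-PYY in binding buffer containing BSA, test compound at 10 μM final, 1 hr at room temperature. Nonspecific binding defined with 1 μM PYY final. Tubes centrifuged, washed with PBS and bound radioactivity gamma-counted.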

[3] = target: human V2 receptor (Homo sapiens, UniProt P30518); assay: V2 binding assay (3H-AVP displacement, HEK-293 membranes); parameters: expressed in transfected cells; host or cells: HEK-293 (membranes); conditions: 1.0 μM compound; for inhibition at 1 µM: read-out: V2@1.0, % Inh
human V2 receptor, sequence (P30518 whole entry): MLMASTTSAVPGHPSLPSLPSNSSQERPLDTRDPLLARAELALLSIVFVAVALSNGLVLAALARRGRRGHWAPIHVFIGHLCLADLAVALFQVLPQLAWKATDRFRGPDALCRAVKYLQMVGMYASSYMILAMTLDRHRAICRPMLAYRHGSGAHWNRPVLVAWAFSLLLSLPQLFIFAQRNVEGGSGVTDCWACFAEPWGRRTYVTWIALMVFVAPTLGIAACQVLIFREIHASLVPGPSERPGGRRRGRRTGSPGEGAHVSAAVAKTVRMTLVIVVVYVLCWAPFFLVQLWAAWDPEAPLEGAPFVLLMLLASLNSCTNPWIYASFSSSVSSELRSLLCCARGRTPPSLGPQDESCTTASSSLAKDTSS
How it was run: as §1

[4] = target: T2, human V1b receptor (Homo sapiens, UniProt P47901); assay: V1b binding assay (3H-AVP displacement, HEK-293 membranes); parameters: expressed in transfected cells; host or cells: HEK-293 (membranes); conditions: for inhibition at 1 µM: 1.0 μM compound, read-out: V1b@1.0, % Inh; for inhibition at 10 µM: read-out: V1b % Inh @10
T2 sequence (P47901 1-424): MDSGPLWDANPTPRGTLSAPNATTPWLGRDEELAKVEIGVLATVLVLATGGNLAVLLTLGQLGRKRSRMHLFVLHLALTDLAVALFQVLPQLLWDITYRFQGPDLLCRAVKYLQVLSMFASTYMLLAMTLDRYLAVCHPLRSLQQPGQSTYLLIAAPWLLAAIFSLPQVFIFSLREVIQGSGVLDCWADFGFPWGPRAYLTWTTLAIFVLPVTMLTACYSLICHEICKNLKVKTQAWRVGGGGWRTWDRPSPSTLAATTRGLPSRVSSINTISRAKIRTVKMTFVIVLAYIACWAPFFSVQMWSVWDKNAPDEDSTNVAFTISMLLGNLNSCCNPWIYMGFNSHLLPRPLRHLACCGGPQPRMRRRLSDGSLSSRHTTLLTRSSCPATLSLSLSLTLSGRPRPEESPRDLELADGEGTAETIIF
How it was run: as §1

| pIC50 [1] | inhibition at 10 µM [2] [%] | inhibition at 1 µM [3] [%] | inhibition at 1 µM [4] [%] | inhibition at 10 µM ([4]; 10 μM compound) [%] | inhibition at 1 µM ([1]; 1.0 μM compound) [%] | Compound | further results |
| --- | --- | --- | --- | --- | --- | --- | --- |
| 7.21 | 13 | 5 | 27 | – | – | CCN(CC)CCn1c(=O)n(C2CCN(C(=S)NCc3ccccc3-c3ccccc3)CC2)c2ccccc21 [Compound 90, 1-(N1-Piperidinocarbothioyl-(2-phenylbenzylamino)-4-yl)-3-(2-diethyaminoethyl)benzimidazol-2-one] | – |
| 7.31 | 17 | 0 | 48 | – | – | CN1CCCC1CCn1c(=O)n(C2CCN(C(=S)NC(c3ccccc3)c3ccccc3)CC2)c2ccccc21 (stereo not drawn) [Compound 93] | – |
| 6.60 | 41 | 0 | – | 25 | – | CC(=O)NCCCn1c(=O)n(C2CCN(C(=S)NC(c3ccccc3)c3ccccc3)CC2)c2ccccc21 [Compound 76, 1-[(N1-Piperidinocarbothioyldiphenylmethylamino)-4-yl]-3-(3-acetamidopropyl)-1,3-dihydrobenzimidazol-2-one] | – |
| – | 22 | 0 | – | 3 | 2 | Cc1ccccc1NC(=O)N1CCC(n2c(=O)[nH]c3ccccc32)CC1 [Compound 48] | – |
| – | 10 | 9 | – | 3 | 22 | COc1cccc(CNC(=S)N2CCC(n3c(=O)[nH]c4ccccc43)CC2)c1OC [Compound 18] | – |
| – | – | – | – | – | – | COc1ccccc1NC(=S)N1CCC(n2c(=O)[nH]c3ccccc32)CC1 [Compound 4, 1-[N1-Piperidinocarbothioyl-(2-methoxyphenyl)amino-4-yl]-1,3-dihydro-benzimidazol-2-one] | V1a@1.0, % Inh ([1]; 1.0 μM compound): 0%; NPY-2@10, % Inh [2]: 6%; V2@1.0, % Inh [3]: 0%; V1b % Inh @10 ([4]; 10 μM compound): 0%@10 |
| – | 17 | 15 | – | 5 | 19 | O=c1[nH]c2ccccc2n1C1CCN(C(=S)NCCc2ccc([N+](=O)[O-])cc2)CC1 [Compound 31] | – |
| – | 2 | 1 | – | 19 | 25 | COC(=O)[C@@H](Cc1ccccc1)NC(=S)N1CCC(n2c(=O)[nH]c3ccccc32)CC1 [Compound 51] | – |
| – | 2 | 0 | – | 45 | – | NCCCn1c(=O)n(C2CCN(C(=S)NC(c3ccccc3)c3ccccc3)CC2)c2cc(Cl)c(Cl)cc21 [Compound 67, 5,6-Dichloro-1-[(N1-piperidinocarbothioylbenzhydrylamino)-4-yl]-3-(3-aminopropyl)-1,3-dihydro-benzimidazol-2-one] | inhibition at 0.1 µM ([1]; 0.1 μM compound, read-out: V1a % Inh @0.1): 57% |
| – | 90 | 0 | – | 22 | 17 | O=C(O)CCn1c(=O)n(C2CCN(C(=S)NC(c3ccccc3)c3ccccc3)CC2)c2ccccc21 [Compound 61, 1-[(N1-Piperidinocarbothioyldiphenylmethylamino)-4-yl]-3-(2-carboxyethyl)-1,3-dihydrobenzimidazol-2-one] | – |
| 5.04 | 13 | 31 | – | 11 | – | CC(NC(=O)N1CCC(n2c(=O)[nH]c3ccccc32)CC1)c1cccc2ccccc12 (stereo in doubt) [Compound 7] | – |
| 7.10 | 10 | 0 | – | 30 | – | NCCCn1c(=O)n(C2CCN(C(=O)NC(c3ccccc3)c3ccccc3)CC2)c2ccccc21 [Compound 77, 1-[(N1-Piperidinocarbonyldiphenylmethylamino)-4-yl]-3-(3-aminopropyl)-1,3-dihydrobenzimidazol-2-one] | – |
| – | 26 | 11 | 20 | – | 13 | O=c1n(CCCN2CCCCC2)c2ccccc2n1C1CCN(C(=S)Nc2ccccc2F)CC1 [Compound 115, 1-[(N1-piperidinocarbonthioyl-2-fluorophenylamino)-4-yl]-3-(3-N-piperidinylpropyl)-1,3-dihydrobenzimidazol-2-one] | – |
| 6.96 and 7.25 | 31 | 0 | 30 | – | – | COc1ccccc1CNC(=S)N1CCC(n2c(=O)n(CCCN3CCCCC3)c3ccccc32)CC1 [Compound 111, 1-[(N1-piperidinocarbothioyl-2-methoxybenzylamino)-4-yl]-3-(3-N-piperidinylpropyl)-1,3-dihydrobenzimidazol-2-one] | – |
| – | 0 | 2 | – | 8 | 5 | O=c1n(Cc2ccccc2)c2ccccc2n1C1CCN(C(=S)NC(c2ccccc2)c2ccccc2)CC1 [Compound 37, 1-(N1-Piperidinocarbothioyldiphenylmethylamino-4-yl)-3-benzyl-1,3-dihydrobenzimidazol benzimidazol-2-one] | – |
| – | 22 | 21 | – | 13 | 42 | O=c1[nH]c2ccccc2n1C1CCN(C(=S)NC(c2ccccc2)c2ccc(Cl)cc2)CC1 (stereo not drawn) [Compound 34] | – |
| – | 12 | 0 | – | 0 | – | COc1cc(CNC(=S)N2CCC(n3c(=O)[nH]c4ccccc43)CC2)cc(OC)c1OC [Compound 20] | inhibition at 10 µM ([1]; 10 μM compound, read-out: V1a % Inh @10): 25% |
| – | 100 | 20 | 25 | – | 20 | O=C(NC(c1ccccc1)(c1ccccc1)c1ccccc1)N1CCC(n2c(=O)n(CCCN3CCCCC3)c3ccccc32)CC1 [Compound 120, 1-[(N1-piperidinocarbonyltriphenylmethylamino)-4-yl]-3-(3-N-piperidinylpropyl)-1,3-dihydrobenzimidazol-2-one] | – |
| – | 17 | 2 | 4 | – | 1 | O=C(Nc1ccccc1F)N1CCC(n2c(=O)n(CCCN3CCCCC3)c3ccccc32)CC1 [Compound 114, 1-[(N1-piperidinocarbonyl-2-fluorophenylamino)-4-yl]-3-(3-N-piperidinylpropyl)-1,3-dihydrobenzimidazol-2-one] | – |
| – | 40 | 0 | – | 27 | 22 | NC(=O)CCn1c(=O)n(C2CCN(C(=S)NC(c3ccccc3)c3ccccc3)CC2)c2ccccc21 [Compound 69, 1-[(N1-piperidinocarbothioyldiphenylmethylamino)-4-yl]-3-(2-amidoethyl)-1,3-dihydro-benzimidazol-2-one] | – |
| 6.72 | 17 | 0 | – | 11 | – | COC(=O)C(Cc1ccccc1)NC(=S)N1CCC(n2c(=O)[nH]c3ccccc32)CC1 (stereo not drawn) [Compound 40] | – |
| 7.21 | 13 | 19 | 29 | – | 48 | COc1ccccc1NC(=S)N1CCC(n2c(=O)n(CCCN3CCCCC3)c3ccccc32)CC1 [Compound 119, 1-[(N1-piperidinocarbothioyl-2-methoxyphenylamino)-4-yl]-3-(3-N-piperidinylpropyl)-1,3-dihydrobenzimidazol-2-one] | – |

| Compound | pIC50 [1] | inhibition at 10 µM [2] [%] | inhibition at 1 µM [3] [%] | inhibition at 1 µM [4] [%] | inhibition at 10 µM ([4]; 10 μM compound) [%] | inhibition at 1 µM ([1]; 1.0 μM compound) [%] | further results |
| --- | --- | --- | --- | --- | --- | --- | --- |
| COC(=O)C(Cc1ccccc1)NC(=S)N1CCC(n2c(=O)n(CCCN3CCCC3)c3ccccc32)CC1 [Compound 86, 1-[(N1-Piperidinocarbothioyl-(2-phenyl-1-L-carboxymethyl)amino-4-yl)-4-yl]-3-(3-pyrrolidinylpropyl)-1,3-dihydrobenzimidazol-2-one] | 7.89 | 10 | 3 | – | – | – | pIC50 [4]: 5.92 |
